Source: ChEMBL document CHEMBL1201862, “PubChem BioAssay data set” (2004)
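Cultured in 96-well plates, cells were exposed to test compound for 48 hours across five concentrations. The concentration for 50% growth inhibition is given as GI50.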 Calls of active or inactive are those of the source. No stated cut-off is given here; in the data, active = GI50 up to about 1.1 µM and inactive = higher.

Key:
Experiment in all cases: NCI tumour cell line growth inhibition, 48 h
[1] = tested on: EKVX
[2] = tested on: SW-620
[3] = tested on: Malme-3M
[4] = tested on: K562
[5] = tested on: HT-29
[6] = tested on: UO-31
[7] = tested on: RPMI-8226
[8] = tested on: HOP-92
[9] = tested on: SK-MEL-28
[10] = tested on: Hs-578T
[11] = tested on: SK-MEL-2
[12] = tested on: SNB-19
[13] = tested on: OVCAR-3
[14] = tested on: SR
[15] = tested on: MCF7
[16] = tested on: NCI-H522
[17] = tested on: NCI-H460
[18] = tested on: LOX IMVI
[19] = tested on: CCRF-CEM
[20] = tested on: OVCAR-5
[21] = tested on: A549
[22] = tested on: IGROV-1
[23] = tested on: U-251
[24] = tested on: OVCAR-4
[25] = tested on: SN12C
[26] = tested on: T47D
[27] = tested on: SK-OV-3
[28] = tested on: MOLT-4
[29] = tested on: KM12
[30] = tested on: HCC 2998
[31] = tested on: NCI/ADR-RES
[32] = tested on: ACHN
[33] = tested on: SF-295
[34] = tested on: HCT-116
[35] = tested on: MDA-MB-435
[36] = tested on: RXF 393
[37] = tested on: BT-549
[38] = tested on: MDA-N
[39] = tested on: MDA-MB-231
[40] = tested on: NCI-H23
[41] = tested on: 786-0
[42] = tested on: CAKI-1
[43] = tested on: OVCAR-8
[44] = tested on: COLO 205
[45] = tested on: UACC-62
[46] = tested on: PC-3
[47] = tested on: UACC-257
[48] = tested on: HOP-62
[49] = tested on: HCT-15
[50] = tested on: SK-MEL-5
[51] = tested on: SNB-75
[52] = tested on: DU-145
[53] = tested on: TK-10
[54] = tested on: M14
[55] = tested on: NCI-H226
[56] = tested on: HL-60
[57] = tested on: SF-268
[58] = tested on: SF-539

SMILES: Cc1cccc2nc3cccc(C(=O)NCCC[N+](C)(CCCNC(=O)c4cccc5nc6cccc(C)c6nc45)Cc4ccc([N+](=O)[O-])n4C)c3nc12
- GI50 [1]: 2.1 µM (inactive)
- GI50 [2]: 0.284 µM (active)
- GI50 [3]: 35.9 µM (inactive)
- GI50 [4]: 0.407 µM (active)
- GI50 [5]: 0.396 µM (active)
- GI50 [6]: 1.04 µM (active)
- GI50 [7]: 1.33 µM (inactive)
- GI50 [8]: > 100 µM (inactive)
- GI50 [9]: 3.94 µM (inactive)
- GI50 [10]: 18.5 µM (inactive)
- GI50 [11]: 8.32 µM (inactive)
- GI50 [12]: 13.1 µM (inactive)
- GI50 [13]: 3.98 µM (inactive)
- GI50 [14]: 0.294 µM (active)
- GI50 [15]: 0.552 µM (active)
- GI50 [16]: 4.13 µM (inactive)
- GI50 [17]: 0.405 µM (active)
- GI50 [18]: 0.871 µM (active)
- GI50 [19]: 0.94 µM (active)
- GI50 [20]: 6.68 µM (inactive)
- GI50 [21]: 0.348 µM (active)
- GI50 [22]: 0.703 µM (active)
- GI50 [23]: 0.456 µM (active)
- GI50 [24]: 27.3 µM (inactive)
- GI50 [25]: 0.839 µM (active)
- GI50 [26]: 14.9 µM (inactive)
- GI50 [27]: 41.5 µM (inactive)
- GI50 [28]: 0.377 µM (active)
- GI50 [29]: 2.26 µM (inactive)
- GI50 [30]: 11.6 µM (inactive)
- GI50 [31]: > 32.3 µM (inactive)
- GI50 [32]: 0.321 µM (active)
- GI50 [33]: 5.66 µM (inactive)
- GI50 [34]: 0.0615 µM (active)
- GI50 [35]: > 27 µM (inactive)
- GI50 [36]: > 100 µM (inactive)
- GI50 [37]: > 100 µM (inactive)
- GI50 [38]: 6.08 µM (inactive)
- GI50 [39]: 17.5 µM (inactive)
- GI50 [40]: > 67.1 µM (inactive)
- GI50 [41]: 0.32 µM (active)
- GI50 [42]: 0.895 µM (active)
- GI50 [43]: 0.49 µM (active)
- GI50 [44]: 3.58 µM (inactive)
- GI50 [45]: 5.4 µM (inactive)
- GI50 [46]: 1.83 µM (inactive)
- GI50 [47]: > 31.6 µM (inactive)
- GI50 [48]: 0.809 µM (active)
- GI50 [49]: 2.4 µM
- GI50 [50]: 2.89 µM (inactive)
- GI50 [51]: > 100 µM (inactive)
- GI50 [52]: 1.45 µM (inactive)
- GI50 [53]: > 100 µM (inactive)
- GI50 [54]: > 31.3 µM (inactive)

SMILES: c1ccc(/N=C(\N2CCOCC2)N(CCN2CCOCC2)c2ccccc2)cc1
- GI50 [1]: > 100 µM (inactive)
- GI50 [2]: > 100 µM (inactive)
- GI50 [3]: > 100 µM (inactive)
- GI50 [4]: > 100 µM (inactive)
- GI50 [5]: > 100 µM (inactive)
- GI50 [6]: 45.2 µM (inactive)
- GI50 [7]: > 100 µM (inactive)
- GI50 [9]: > 100 µM (inactive)
- GI50 [10]: > 100 µM (inactive)
- GI50 [11]: > 100 µM (inactive)
- GI50 [12]: > 100 µM (inactive)
- GI50 [13]: > 100 µM (inactive)
- GI50 [14]: > 100 µM (inactive)
- GI50 [15]: > 100 µM (inactive)
- GI50 [16]: > 100 µM (inactive)
- GI50 [17]: > 100 µM (inactive)
- GI50 [18]: > 100 µM (inactive)
- GI50 [19]: > 100 µM (inactive)
- GI50 [21]: > 100 µM (inactive)
- GI50 [22]: > 100 µM (inactive)
- GI50 [23]: > 100 µM (inactive)
- GI50 [24]: > 100 µM (inactive)
- GI50 [25]: > 100 µM (inactive)
- GI50 [26]: > 100 µM (inactive)
- GI50 [27]: > 100 µM (inactive)
- GI50 [28]: > 100 µM (inactive)
- GI50 [29]: > 100 µM (inactive)
- GI50 [30]: > 100 µM (inactive)
- GI50 [31]: > 10 µM (inactive)
- GI50 [33]: > 100 µM (inactive)
- GI50 [34]: 98.2 µM (inactive)
- GI50 [35]: > 100 µM (inactive)
- GI50 [36]: > 100 µM (inactive)
- GI50 [37]: > 100 µM (inactive)
- GI50 [38]: > 100 µM (inactive)
- GI50 [39]: > 100 µM (inactive)
- GI50 [55]: > 100 µM (inactive)
- GI50 [40]: > 100 µM (inactive)
- GI50 [41]: > 100 µM (inactive)
- GI50 [42]: > 100 µM (inactive)
- GI50 [43]: > 100 µM (inactive)
- GI50 [44]: > 100 µM (inactive)
- GI50 [56]: > 10 µM (inactive)
- GI50 [45]: > 100 µM (inactive)
- GI50 [57]: > 100 µM (inactive)
- GI50 [46]: > 100 µM (inactive)
- GI50 [47]: > 100 µM (inactive)
- GI50 [58]: > 100 µM (inactive)
- GI50 [48]: > 100 µM (inactive)
- GI50 [49]: > 100 µM
- GI50 [50]: > 100 µM (inactive)
- GI50 [51]: > 100 µM (inactive)
- GI50 [52]: > 100 µM (inactive)
- GI50 [53]: > 100 µM (inactive)
- GI50 [54]: > 100 µM (inactive)
